Data: article PMC4207771, “Identification and Characterization of Novel Renal Sensory Receptors” (PLoS ONE, 2014)
“Also recorded” adds a separate entry of the source. Read-outs that look alike come from different tables or passages of the source.

What was measured:
Olfr691 [1] = molecular target: T1, Olfr691 (Mus musculus, UniProt Q8VGW5); assay: dual-luciferase (cAMP/CREB reporter) ligand screen, Olfr691 in HEK293T cells; type: cell-based; conditions: for Olfr691 response in dual-luciferase assay: chemicals tested individually, screened at 500uM (* also at 100uM); for Relative response (% of 4-pentenoate response) at 500 µM: HEK-293T, 4 h; for EC50: Olfr691 co-expressed with RTP1S in HEK293T cells, 10 µM to 7.5 mM
T1 construct: Lucy (N); expressed in transfected cells; host or cells: HEK293T, co-transfected with RTP1S
T1 sequence (Q8VGW5 1-322): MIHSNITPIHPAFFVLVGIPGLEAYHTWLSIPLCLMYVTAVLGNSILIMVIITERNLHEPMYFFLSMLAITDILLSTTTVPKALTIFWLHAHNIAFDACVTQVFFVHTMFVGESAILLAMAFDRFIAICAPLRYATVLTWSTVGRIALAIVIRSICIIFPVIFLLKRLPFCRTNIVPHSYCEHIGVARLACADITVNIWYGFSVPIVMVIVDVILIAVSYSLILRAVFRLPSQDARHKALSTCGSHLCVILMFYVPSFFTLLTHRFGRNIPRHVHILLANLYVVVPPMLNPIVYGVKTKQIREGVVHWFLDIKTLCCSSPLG

Olfr545 = assay: dual-luciferase (cAMP/CREB reporter) ligand screen, Olfr545 in HEK293T cells; type: cell-based, mouse; design: key to Olfr545 response in dual-luciferase assay: ‘+’ or ‘–‘ in each column indicates if the olfactory receptor responded or had no effect to that specific chemical; -: ‘+’ or ‘–‘ in each column indicates if the olfactory receptor responded or had no effect to that specific chemical; conditions: for Olfr545 response in dual-luciferase assay: chemicals tested individually, screened at 500uM (* also at 100uM)
Olfr99 = assay: dual-luciferase (cAMP/CREB reporter) ligand screen, Olfr99 in HEK293T cells; type: cell-based, mouse; design: key: ‘+’ or ‘–‘ in each column indicates if the olfactory receptor responded or had no effect to that specific chemical; -: ‘+’ or ‘–‘ in each column indicates if the olfactory receptor responded or had no effect to that specific chemical; conditions: chemicals tested individually, screened at 500uM (* also at 100uM)
Olfr31 = molecular target: T2, Olfr31 (Mus musculus, UniProt Q3KPA7); assay: dual-luciferase (cAMP/CREB reporter) ligand screen, Olfr31 in HEK293T cells; type: cell-based; conditions: chemicals tested individually, screened at 500uM (* also at 100uM)
T2 construct: expressed in transfected cells; host or cells: HEK293T, co-transfected with RTP1S
T2 sequence (Q3KPA7 1-317): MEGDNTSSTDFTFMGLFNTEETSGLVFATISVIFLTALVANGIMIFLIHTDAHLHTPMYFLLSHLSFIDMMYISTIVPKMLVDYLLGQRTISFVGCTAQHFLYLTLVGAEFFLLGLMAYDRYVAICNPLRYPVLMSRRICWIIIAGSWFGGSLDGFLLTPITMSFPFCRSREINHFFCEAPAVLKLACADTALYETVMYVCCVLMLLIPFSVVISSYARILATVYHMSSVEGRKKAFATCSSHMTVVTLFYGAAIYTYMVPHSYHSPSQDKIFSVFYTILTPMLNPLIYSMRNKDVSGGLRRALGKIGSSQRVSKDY

Olfr693 = assay: dual-luciferase (cAMP/CREB reporter) ligand screen, Olfr693 in HEK293T cells; type: cell-based, mouse; design: key: ‘+’ or ‘–‘ in each column indicates if the olfactory receptor responded or had no effect to that specific chemical; -: ‘+’ or ‘–‘ in each column indicates if the olfactory receptor responded or had no effect to that specific chemical; conditions: chemicals tested individually, screened at 500uM (* also at 100uM)
Olfr691 [2] = molecular target: T1, Olfr691; design: method as in PMID 15550249; conditions: cited from earlier work
[3] = design: method as in PMID 20304335, PMID 15230715; conditions: patients treated with valproate as an antiepileptic drug; cited from earlier work
[4] = 0.5 mM ligand, normalized to the response of Olfr691 to the strongest ligand, 4-pentenoate
[5] = luciferase assay, co-expressed with RTP1S

| Compound | Olfr691 response in dual-luciferase assay (Olfr691 [1]) | Olfr545 response in dual-luciferase assay (Olfr545) | Olfr99 response in dual-luciferase assay (Olfr99) | Olfr31 response in dual-luciferase assay (Olfr31) | Olfr693 response in dual-luciferase assay (Olfr693) | Relative response (% of 4-pentenoate response) at 500 µM (Olfr691 [1]; [4]) [%] | EC50 (Olfr691 [1]) [µM] | Olfr691 response (in words) (Olfr691 [1]; luciferase assay, co-expressed with RTP1S, listed as pentanal) | previously reported ligand of Olfr691 (Olfr691 [2]; listed as pentanal) | Olfr691 response (in words) (Olfr691 [1]) | Relative response at 0.5mM (Olfr691 [1]; [4]) | Olfr691 response (in words) (Olfr691 [1]; [5]) | Olfr545 response (in words) (Olfr545; luciferase assay) | previously reported ligand of Olfr691 (Olfr691 [2]) | renal adverse effect in patients [3] |
| --- | --- | --- | --- | --- | --- | --- | --- | --- | --- | --- | --- | --- | --- | --- | --- |
| CCOC(=O)c1ccccc1 [ethyl benzoate] | - | - | - | - | - |  |  |  |  |  |  |  |  |  |  |
| C=CCc1ccc(O)c(OC)c1 [eugenol] | - | - | - | - | - |  |  |  |  |  |  |  |  |  |  |
| CCCCCCC(=O)O [heptanoate] | + | - | - | - | - | 41 ± 2.1 |  |  |  |  |  |  |  |  |  |
| CC(C)C(=O)O [isobutyrate] | + | - | - | - | - | 97 ± 10.8 | 1130 |  |  |  |  |  |  |  |  |
| CC(C)CCC(=O)O [isocaproate] | + | - | - | - | - | 37 ± 2.7 |  |  |  |  |  |  |  |  |  |
| N[C@@H](CCC(=O)O)C(=O)O [l-glutamate] | - | - | - | - | - |  |  |  |  |  |  |  |  |  |  |
| CC(C)[C@H](N)C(=O)O [l-valine] | - | - | - | - | - |  |  |  |  |  |  |  |  |  |  |
| CC(O)C(=O)O (stereo not drawn) [lactic acid] | - | - | - | - | - |  |  |  |  |  |  |  |  |  |  |
| C=CC(C)(O)CCC=C(C)C (stereo not drawn) [linalool] | - | - | - | - | - |  |  |  |  |  |  |  |  |  |  |
| CC(=O)c1c(C)c([N+](=O)[O-])c(C(C)(C)C)c([N+](=O)[O-])c1C [musk ketone] | - | - | - | - | - |  |  |  |  |  |  |  |  |  |  |
| CCCCC=O [n-valeraldehyde] | - | - | - | - | - |  |  | did not induce a response | previously reported |  |  |  |  |  |  |
| CCCCCCCCC=O [nonanal] | - | - | - | - | - |  |  |  |  |  |  |  |  |  |  |
| CCCCCCCCC(=O)O [nonanoic acid] | - | - | - | - | - |  |  |  |  |  |  |  |  |  |  |
| CC1(C)C2CCC(=O)C1C2 (stereo not drawn) [nopinone] | - | - | - | - | - |  |  |  |  |  |  |  |  |  |  |
| O=C1CC2CC[C@H]1C2 [norcamphor] | - | - | - | - | - |  |  |  |  |  |  |  |  |  |  |
| CCCCCCCC(=O)O [octanoic acid] | + | - | - | - | - | 20 ± 0.9 |  |  |  | responds |  |  |  |  |  |
| O=C1CCCCCCCCCCCCCCO1 [omega-pentadecalactone] | - | - | - | - | - |  |  |  |  |  |  |  |  |  |  |
| CC(C)C(=O)OCCc1ccccc1 [phenyl ethyl isobutyrate] | - | - | - | - | - |  |  |  |  |  |  |  |  |  |  |
| CCC(=O)O [propionate] | + | - | - | - | - |  |  |  |  |  | 42 ± 3.1 | responds |  |  |  |
| O=C(O)CCCCCCCCC(=O)O [sebacic acid] | - | - | - | - | - |  |  |  |  |  |  |  | did not induce a response |  |  |
| CCCCC/C=C/CO [trans-2-octen-1-ol] | - | - | - | - | - |  |  |  |  |  |  |  |  |  |  |
| CCCCC(=O)O [valerate] | + | - | - | - | - | 98 ± 5.7 | 852 |  |  |  |  | dose dependent manner; also recorded: able to confirm |  | previously reported |  |
| CCCC(CCC)C(=O)O [valproate, reference compound] | + | - | - |  | - | 98 ± 5 | 478 |  |  |  |  | highest affinity |  |  | develop Fanconi syndrome |
| Myrtenal | - | - | - | - | - |  |  |  |  |  |  |  |  |  |  |
